US12428415B2, “Matriptase 2 inhibitors and uses thereof” (Disc Medicine, Inc., priority 2018, dated 2025)

Target: T1, Human Recombinant Matriptase 2 (Homo sapiens, UniProt Q8IU80)
T1 construct: purchased Enzo Life Sciences (an in-house preparation was also used) ALX-201-752-1
T1 sequence (Q8IU80 1-811): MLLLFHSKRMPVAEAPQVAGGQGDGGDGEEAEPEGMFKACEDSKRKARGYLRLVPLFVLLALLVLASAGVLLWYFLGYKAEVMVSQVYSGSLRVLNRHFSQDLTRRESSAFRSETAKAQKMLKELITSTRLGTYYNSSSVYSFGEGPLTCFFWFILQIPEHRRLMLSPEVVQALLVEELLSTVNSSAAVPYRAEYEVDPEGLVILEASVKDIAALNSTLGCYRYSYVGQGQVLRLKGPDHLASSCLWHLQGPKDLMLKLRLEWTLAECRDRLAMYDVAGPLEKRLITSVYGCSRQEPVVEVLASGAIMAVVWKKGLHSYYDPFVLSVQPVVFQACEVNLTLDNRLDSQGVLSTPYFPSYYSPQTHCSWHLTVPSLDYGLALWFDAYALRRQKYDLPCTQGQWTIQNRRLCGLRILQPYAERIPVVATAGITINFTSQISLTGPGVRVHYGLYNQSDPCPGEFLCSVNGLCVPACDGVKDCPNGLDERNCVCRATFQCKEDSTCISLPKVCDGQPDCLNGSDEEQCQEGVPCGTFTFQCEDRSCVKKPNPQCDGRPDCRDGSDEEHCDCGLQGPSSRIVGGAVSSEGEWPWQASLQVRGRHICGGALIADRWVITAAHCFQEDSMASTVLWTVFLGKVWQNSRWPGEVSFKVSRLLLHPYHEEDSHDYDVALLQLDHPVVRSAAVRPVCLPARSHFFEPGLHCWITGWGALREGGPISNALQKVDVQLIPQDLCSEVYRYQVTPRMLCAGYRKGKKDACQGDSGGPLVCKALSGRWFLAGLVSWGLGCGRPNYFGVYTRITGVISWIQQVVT
Test: Matriptase 2 fluorescence based inhibition assay, Method B (50 mM TRIS pH 7.5, 150 mM NaCl, 0.01% gelatin)
Type: biochemical
Settings: 1 uM compound, Assay Used = B (Method B); for inhibition at 1 µM: read-out: Mar-2 % inhibition at 1 uM
Outline: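 Fluorogenic substrate Boc-Gln-Ala-Arg-7-amido-4-methylcoumarin (100 μM) cleavage read at Ex 360/Em 480 nm 60 min after addition, following 30 min enzyme–compound preincubation at 25° C. Enzyme was 7 nM commercial or 15 nM in-house; DMSO 1%. IC50s fitted by non-linear sigmoidal regression.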

Structure (SMILES)	inhibition at 1 µM [%]	Mar-2 % inhibition at 1 uM
N=C(N)c1ccc2cc(C(=O)O)n(Cc3cc(Oc4ccccn4)cc4ccccc34)c2c1 [Compound I-628]	75 to 100	–
N=C(N)c1ccc2cc(C(=O)OCCN)n(Cc3cc(Oc4ccccc4)cc4ccccc34)c2c1 [Compound I-629]	75 to 100	–
CCOC(=O)c1cc2ccc(/C(N)=N\O)cc2n1Cc1cc(Oc2ncccn2)cc2ccccc12 [Compound I-630, ethyl (Z)-6-(N′-hydroxycarbamimidoyl)-1-((3-(pyrimidin-2-yloxy)naphthalen-1-yl)methyl)-1H-indole-2-carboxylate]	0 to 25	–
N=C(N)c1ccc2cc(C(=O)N[C@H]3CC[C@H](N)CC3)n(Cc3cc(Oc4ccsc4)cc4ccccc34)c2c1 [Compound I-631]	75 to 100	–
N=C(N)c1ccc2cc(C(=O)O)n(Cc3cc(Oc4ccncc4)cc4ccccc34)c2c1 [Compound I-632]	50 to 75	–
Cc1c(C(=O)N[C@H]2CC[C@H](N)CC2)n(Cc2cccc3ccccc23)c2cc(C(=N)N)ccc12 [Compound I-633]	75 to 100	–
N=C(N)c1ccc2cc(C(=O)NCCN)n(Cc3cc(Oc4ccccc4)cc4ccccc34)c2c1 [Compound I-634]	75 to 100	–
NCc1ccc2cc(C(=O)N[C@H]3CC[C@H](N)CC3)n(Cc3cc(Oc4ccccc4)cc4ccccc34)c2c1 [Compound I-635]	50 to 75	–
NCc1ccc2cc(C(=O)N[C@H]3CC[C@H](N)CC3)n(Cc3cc(S(=O)(=O)c4ccccc4)cc4ccccc34)c2c1 [Compound I-636]	25 to 50	–
Cn1c(C(=O)O)c(-c2ccc3ccccc3c2)c2cc(C(=N)N)ccc21 [Compound I-637]	0 to 25	–
Cc1c(C(=O)O)n(Cc2cccc3ccccc23)c2cc(C(=N)N)ccc12 [Compound I-638, 6-carbamimidoyl-3-methyl-1-(naphthalen-1-ylmethyl)-1H-indole-2-carboxylic Acid]	50 to 75	–
N=C(N)c1ccc2cc(C(=O)O)n(Cc3cc(Oc4ccc(N)cc4F)cc4ccccc34)c2c1 [Compound I-639]	50 to 75	–
Cn1c(C(=O)O)c(Cc2cccc3ccccc23)c2cc(/C(N)=N/O)ccc21 [Compound I-641]	0 to 25	–
N=C(N)c1ccc2cc(C(=O)N[C@H]3CC[C@H](N)CC3)n(Cc3ccc(C(N)=O)c4ccccc34)c2c1 [Compound I-642]	–	C (C represents 50%≤I≤75%)
N/C(=N/O)c1ccc2cc(C(=O)O)n(Cc3cc(Oc4ncccn4)cc4ccccc34)c2c1 [Compound I-643, (Z)-6-(N′-hydroxycarbamimidoyl)-1-((3-(pyrimidin-2-yloxy)naphthalen-1-yl)methyl)-1H-indole-2-carboxylic Acid]	0 to 25	–
N=C(N)c1ccc2cc(N3CCOCC3)n(Cc3cccc4ccccc34)c2c1 [Compound I-644, 2-morpholino-1-(naphthalen-1-ylmethyl)-1H-indole-6-carboximidamide]	25 to 50	–
N=C(N)c1ccc2cc(C(=O)NC3CCC(N)CC3)n(Cc3ccc(C(=N)N)c4ccccc34)c2c1 (stereo not drawn) [Compound I-645]	25 to 50	–
N=C(N)c1ccc2cc(C(=O)N[C@H]3CC[C@H](N)CC3)n(Cc3ccccc3-c3ccccc3)c2c1 [Compound I-646]	–	A (A represents 0%≤I≤25%)
Cc1ccc(S(=O)(=O)Oc2cc(Cn3c(C(=O)O)cc4ccc(C(=N)N)cc43)c3ccccc3c2)cc1 [Compound I-647]	75 to 100	–
N=C(N)c1ccc2cc(C(=O)O)n(Cc3cc(OC(F)F)cc4ccccc34)c2c1 [Compound I-648]	50 to 75	–
N=C(N)c1ccc2cc(C(=O)O)n(Cc3cc(Cc4ccccc4)cc4ccccc34)c2c1 [Compound I-649]	0 to 25	–
NC(=NO)c1ccc2cc(C(=O)O)n(Cc3cccc4ccccc34)c2n1 [Compound I-650]	0 to 25	–
N=C(N)c1ccc2c(c1)cc(C(=O)O)n2Cc1cccc2ccccc12 [Compound I-651]	0 to 25	–
N=C(N)c1ccc2cc(C(=O)N[C@H]3CC[C@H](N)CC3)n(Cc3c(Cl)c(Sc4ccccc4)cc4ccccc34)c2c1 [Compound I-652]	50 to 75	–
N=C(N)c1ccc2cc(C(=O)O)n(Cc3c(Cl)c(Sc4ccccc4)cc4ccccc34)c2c1 [Compound I-653]	0 to 25	–
N=C(N)c1ccc2cc(C(=O)O)n(-c3ccc4ccccc4c3)c2c1 [Compound I-654]	0 to 25	–
N=C(N)c1ccc2cc(C(=O)O)n(Cc3cc(Oc4ccsc4)cc4ccccc34)c2c1 [Compound I-655]	50 to 75	–

Structure (SMILES)	inhibition at 1 µM [%]	Mar-2 % inhibition at 1 uM
N=C(N)c1ccc2cc(C(=O)O)n(Cc3cc(Nc4ccccc4)cc4ccccc34)c2c1 [Compound I-656]	50 to 75	–
N#Cc1c(C(=O)N[C@H]2CC[C@H](N)CC2)n(Cc2cccc3ccccc23)c2cc(C(=N)N)ccc12 [Compound I-657]	–	A (A represents 0%≤I≤25%)
CCOC(=O)c1cc2ccc(C(N)=NO)cc2n1Cc1cc(S(=O)(=O)c2ccccc2)cc2ccccc12 [Compound I-658]	0 to 25	–
NC(=NO)c1ccc2cc(C(=O)O)n(Cc3cc(S(=O)(=O)c4ccccc4)cc4ccccc34)c2c1 [Compound I-659]	0 to 25	–
N/C(=N\O)c1ccc2c(c1)cc(C(=O)O)n2Cc1cccc2ccccc12 [Compound I-660]	0 to 25	–
N=C(N)c1ccc2cc(C(=O)O)n(Cc3cc(Oc4ccccc4Cl)cc4ccccc34)c2c1 [Compound I-661]	25 to 50	–
CCOC(=O)c1cc2ccc(C(=N)N)cc2n1Cc1cc(Oc2ccccc2)cc2ccccc12 [Compound I-662]	25 to 50	–
CCOC(=O)c1cc2ccc(C(N)=NO)cc2n1Cc1cc(Oc2ccccc2)cc2ccccc12 [Compound I-663]	0 to 25	–
CCn1c(C(=O)N[C@H]2CC[C@H](N)CC2)c(Cc2cccc3ccccc23)c2cc(C(=N)NN)ccc21 [Compound I-664]	0 to 25	–
NC(=NO)c1ccc2cc(C(=O)O)n(Cc3cc(Oc4ccccc4)cc4ccccc34)c2c1 [Compound I-665]	0 to 25	–
N=C(N)c1ccc2cc(C(=O)NC3CCC(N)CC3)n(Cc3ccc(CN)c4ccccc34)c2c1 (stereo not drawn) [Compound I-666]	50 to 75	–
N=C(N)c1ccc2cc(C(=O)O)n(Cc3c[nH]c4ccccc34)c2n1 [Compound I-667]	25 to 50	–
COc1ccc(Cn2c(C(=O)N[C@H]3CC[C@H](N)CC3)cc3ccc(C(=N)N)cc32)c2ccccc12 [Compound I-668]	75 to 100	–
CCOC(=O)c1cc2ccc(C(=N)N)cc2n1Cc1cc(S(=O)(=O)c2ccccc2)cc2ccccc12 [Compound I-669]	25 to 50	–
N=C(N)c1ccc2cc(C(=O)N[C@H]3CC[C@H](N)CC3)n(Cc3cc(Oc4ncccn4)cc4ccccc34)c2c1 [Compound I-670]	75 to 100	–
N=C(N)c1ccc2cc(NC(=O)[C@H]3CC[C@H](N)CC3)n(Cc3cccc4ccccc34)c2c1 [Compound I-671]	–	C (C represents 50%≤I≤75%)
N=C(N)c1ccc2cc(C(=O)O)n(Cc3cccc4c(COCc5ccccc5)cccc34)c2c1 [Compound I-672]	75 to 100	–
N=C(N)c1ccc2cc(C(=O)N[C@H]3CC[C@H](N)CC3)n(Cc3ccc(C(=O)O)c4ccccc34)c2c1 [Compound I-673]	–	B (B represents 25%≤I≤50%)
CC(C)COC(=O)NC(=N)c1ccc2cc(C(=O)O)n(Cc3cccc4ccccc34)c2n1 [Compound I-674]	25 to 50	–
CCOC(=O)c1cc2ccc(/C(N)=N/O)cc2n1Cc1cccc2ccccc12 [Compound I-675, Ethyl (Z)-6-(N′-hydroxycarbamimidoyl)-1-(naphthalen-1-ylmethyl)-1H-indole-2-carboxylate]	0 to 25	–
CCOC(=O)c1cc2ccc(C(=N)NC(=O)OCC(C)C)nc2n1Cc1cccc2ccccc12 [Compound I-676]	0 to 25	–
N=C(N)c1ccc2cc(C(=O)O)n(-c3cc(CO)c4ccccc4c3)c2c1 [Compound I-677]	50 to 75	–
N=C(N)c1ccc2cc(C(=O)O)n(Cc3cc(S(=O)(=O)c4ccccc4)cc4ccccc34)c2c1 [Compound I-678]	50 to 75	–
N=C(N)c1ccc2cc(C(=O)O)n(Cc3ccc(Oc4ccccc4)c4ccccc34)c2n1 [Compound I-679]	25 to 50	–
N=C(N)c1ccc2cc(C(=O)O)n(Cc3cccc4ccc(Oc5ccccc5)cc34)c2c1 [Compound I-680]	25 to 50	–
N=C(N)c1ccc2cc(C(=O)N[C@H]3CC[C@H](N)CC3)n(-c3cc(CO)c4ccccc4c3)c2c1 [Compound I-681]	75 to 100	–
N=C(N)c1ccc2cc(C(=O)O)n(Cc3cc(OC4CCCCC4)cc4ccccc34)c2c1 [Compound I-682]	25 to 50	–
